Data from ChEMBL document CHEMBL4507269, “Data for DCP probe BAY-386” (2021).

Assays:
[1] = biological target: Beta-1 adrenergic receptor (Homo sapiens) (UniProt P08588); experiment: beta1 (h) Eurofins-Cerep Cellular and Nuclear Receptor Functional Assays; details: Compound concentration 10.0 uM
[2] = biological target: D(2) dopamine receptor (Homo sapiens) (UniProt P14416); experiment: D2s (h) Eurofins-Cerep Cellular and Nuclear Receptor Functional Assays; details: Compound concentration 10.0 uM
[3] = system: Tyrosine-protein kinase ABL1 (Homo sapiens), P00519 [E255K]; details: Compound concentration 1000.0 nM
[4] = system: Tyrosine-protein kinase ABL1 (Homo sapiens), P00519 [F317I]; details: Compound concentration 1000.0 nM
[5] = biological target: Cyclin-dependent kinase 9 (Homo sapiens) (UniProt P50750); details: Compound concentration 1000.0 nM
[6] = biological target: Cyclin-dependent kinase-like 1 (Homo sapiens) (UniProt Q00532); details: Compound concentration 1000.0 nM
[7] = biological target: Dual specificity protein kinase CLK3 (Homo sapiens) (UniProt P49761); details: Compound concentration 1000.0 nM
[8] = biological target: Dual specificity protein kinase CLK4 (Homo sapiens) (UniProt Q9HAZ1); details: Compound concentration 1000.0 nM
[9] = biological target: Mitogen-activated protein kinase kinase kinase 12 (Homo sapiens) (UniProt Q12852); details: Compound concentration 1000.0 nM
[10] = biological target: Myotonin-protein kinase (Homo sapiens) (UniProt Q09013); details: Compound concentration 1000.0 nM
[11] = biological target: Ephrin type-A receptor 6 (Homo sapiens) (UniProt Q9UF33); details: Compound concentration 1000.0 nM
[12] = biological target: Ephrin type-B receptor 6 (Homo sapiens) (UniProt O15197); details: Compound concentration 1000.0 nM
[13] = biological target: Receptor tyrosine-protein kinase erbB-2 (Homo sapiens) (UniProt P04626); details: Compound concentration 1000.0 nM
[14] = biological target: Fibroblast growth factor receptor 2 (Homo sapiens) (UniProt P21802); details: Compound concentration 1000.0 nM
[15] = biological target: Glycogen synthase kinase-3 alpha (Homo sapiens) (UniProt P49840); details: Compound concentration 1000.0 nM
[16] = biological target: Serine/threonine-protein kinase 10 (Homo sapiens) (UniProt O94804); details: Compound concentration 1000.0 nM
[17] = biological target: Mitogen-activated protein kinase kinase kinase 2 (Homo sapiens) (UniProt Q9Y2U5); details: Compound concentration 1000.0 nM
[18] = biological target: Mitogen-activated protein kinase kinase kinase kinase 3 (Homo sapiens) (UniProt Q8IVH8); details: Compound concentration 1000.0 nM
[19] = biological target: Dual specificity mitogen-activated protein kinase kinase 4 (Homo sapiens) (UniProt P45985); details: Compound concentration 1000.0 nM
[20] = biological target: Misshapen-like kinase 1 (Homo sapiens) (UniProt Q8N4C8); details: Compound concentration 1000.0 nM
[21] = biological target: Serine/threonine-protein kinase Nek5 (Homo sapiens) (UniProt Q6P3R8); details: Compound concentration 1000.0 nM
[22] = biological target: 3-phosphoinositide-dependent protein kinase 1 (Homo sapiens) (UniProt O15530); details: Compound concentration 1000.0 nM
[23] = biological target: Phosphorylase b kinase gamma catalytic chain, skeletal muscle/heart isoform (Homo sapiens) (UniProt Q16816); details: Compound concentration 1000.0 nM
[24] = system: Phosphatidylinositol 4,5-bisphosphate 3-kinase catalytic subunit alpha isoform (Homo sapiens), P42336 [E542K]; details: Compound concentration 1000.0 nM
[25] = system: Phosphatidylinositol 4,5-bisphosphate 3-kinase catalytic subunit alpha isoform (Homo sapiens), P42336 [H1047Y]; details: Compound concentration 1000.0 nM
[26] = biological target: Serine/threonine-protein kinase pim-2 (Homo sapiens) (UniProt Q9P1W9); details: Compound concentration 1000.0 nM
[27] = biological target: Serine/threonine-protein kinase PLK3 (Homo sapiens) (UniProt Q9H4B4); details: Compound concentration 1000.0 nM
[28] = biological target: cGMP-dependent protein kinase 1 (Homo sapiens) (UniProt Q13976); details: Compound concentration 1000.0 nM
[29] = system: Proto-oncogene tyrosine-protein kinase receptor Ret (Homo sapiens), P07949 [V804M]; details: Compound concentration 1000.0 nM
[30] = biological target: Receptor-interacting serine/threonine-protein kinase 1 (Homo sapiens) (UniProt Q13546); details: Compound concentration 1000.0 nM
[31] = biological target: Dual serine/threonine and tyrosine protein kinase (Homo sapiens) (UniProt Q6XUX3); details: Compound concentration 1000.0 nM
[32] = biological target: Serine/threonine-protein kinase Sgk3 (Homo sapiens) (UniProt Q96BR1); details: Compound concentration 1000.0 nM
[33] = biological target: Serine/threonine-protein kinase SIK1 (Homo sapiens) (UniProt P57059); details: Compound concentration 1000.0 nM
[34] = biological target: SNF-related serine/threonine-protein kinase (Homo sapiens) (UniProt Q9NRH2); details: Compound concentration 1000.0 nM
[35] = biological target: Serine/threonine-protein kinase 35 (Homo sapiens) (UniProt Q8TDR2); details: Compound concentration 1000.0 nM
[36] = biological target: Serine/threonine-protein kinase TBK1 (Homo sapiens) (UniProt Q9UHD2); details: Compound concentration 1000.0 nM
[37] = biological target: Transient receptor potential cation channel subfamily M member 6 (Homo sapiens) (UniProt Q9BX84); details: Compound concentration 1000.0 nM
[38] = biological target: Serine/threonine-protein kinase ULK1 (Homo sapiens) (UniProt O75385); details: Compound concentration 1000.0 nM
[39] = biological target: 5-hydroxytryptamine receptor 2A (Homo sapiens) (UniProt P28223); details: Compound concentration 10.0 uM
[40] = biological target: D(1A) dopamine receptor (Homo sapiens) (UniProt P21728); details: Compound concentration 10.0 uM
[41] = biological target: D(2) dopamine receptor (Homo sapiens) (UniProt P14416); details: Compound concentration 10.0 uM
[42] = biological target: Histamine H3 receptor (Homo sapiens) (UniProt Q9Y5N1); details: Compound concentration 10.0 uM
[43] = biological target: GABA-A receptor; anion channel (Rattus norvegicus) (UniProt O09028+P15431+P18506+P18508+P19969+P20236+P23574+P23576+P28471+P28473+P30191+P62813+P63079+P63138+Q91ZM7+Q9ES14); details: Compound concentration 10.0 uM

Sequence of Beta-1 adrenergic receptor (Homo sapiens) (P08588 whole entry, looked up): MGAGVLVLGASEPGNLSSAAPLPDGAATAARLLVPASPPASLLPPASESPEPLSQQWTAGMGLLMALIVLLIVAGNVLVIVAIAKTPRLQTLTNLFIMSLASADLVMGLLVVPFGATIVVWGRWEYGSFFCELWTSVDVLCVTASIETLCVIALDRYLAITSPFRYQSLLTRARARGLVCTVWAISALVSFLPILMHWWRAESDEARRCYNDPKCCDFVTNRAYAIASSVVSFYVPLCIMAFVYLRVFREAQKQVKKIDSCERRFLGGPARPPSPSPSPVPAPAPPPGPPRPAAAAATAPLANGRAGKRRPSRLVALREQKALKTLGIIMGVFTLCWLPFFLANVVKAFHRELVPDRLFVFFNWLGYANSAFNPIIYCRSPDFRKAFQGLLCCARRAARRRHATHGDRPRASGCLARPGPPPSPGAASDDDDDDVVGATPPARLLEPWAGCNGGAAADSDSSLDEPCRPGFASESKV
Sequence of D(2) dopamine receptor (Homo sapiens) (P14416 whole entry): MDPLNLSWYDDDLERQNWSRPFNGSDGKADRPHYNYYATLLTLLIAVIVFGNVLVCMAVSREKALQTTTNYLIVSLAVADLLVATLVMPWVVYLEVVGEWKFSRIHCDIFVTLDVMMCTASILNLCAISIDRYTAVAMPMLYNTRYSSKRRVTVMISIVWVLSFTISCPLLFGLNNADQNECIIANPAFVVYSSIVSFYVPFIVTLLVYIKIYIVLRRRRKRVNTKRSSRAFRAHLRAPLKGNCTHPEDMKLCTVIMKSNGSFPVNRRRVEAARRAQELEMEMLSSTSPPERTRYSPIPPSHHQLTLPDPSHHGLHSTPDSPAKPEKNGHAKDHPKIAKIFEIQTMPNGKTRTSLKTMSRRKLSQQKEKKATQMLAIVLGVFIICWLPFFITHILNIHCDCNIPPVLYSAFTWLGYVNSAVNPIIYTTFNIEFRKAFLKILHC
Sequence of 3-phosphoinositide-dependent protein kinase 1 (Homo sapiens) (O15530 whole entry, canonical isoform): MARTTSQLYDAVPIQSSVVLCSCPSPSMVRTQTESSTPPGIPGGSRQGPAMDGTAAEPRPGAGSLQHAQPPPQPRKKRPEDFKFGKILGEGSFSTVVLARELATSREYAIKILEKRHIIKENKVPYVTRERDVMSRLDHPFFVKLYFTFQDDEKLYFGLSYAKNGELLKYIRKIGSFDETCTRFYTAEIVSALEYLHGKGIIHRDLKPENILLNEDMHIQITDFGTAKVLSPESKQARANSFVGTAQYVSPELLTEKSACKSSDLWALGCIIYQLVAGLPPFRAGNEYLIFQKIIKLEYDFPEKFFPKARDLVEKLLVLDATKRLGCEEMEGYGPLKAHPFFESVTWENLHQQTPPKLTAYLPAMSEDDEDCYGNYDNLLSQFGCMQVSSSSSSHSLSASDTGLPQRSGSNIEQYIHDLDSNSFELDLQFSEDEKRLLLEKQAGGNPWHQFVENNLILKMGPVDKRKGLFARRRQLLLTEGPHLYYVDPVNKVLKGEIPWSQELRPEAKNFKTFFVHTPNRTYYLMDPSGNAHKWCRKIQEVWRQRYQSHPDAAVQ
Sequence of Transient receptor potential cation channel subfamily M member 6 (Homo sapiens) (Q9BX84 whole entry): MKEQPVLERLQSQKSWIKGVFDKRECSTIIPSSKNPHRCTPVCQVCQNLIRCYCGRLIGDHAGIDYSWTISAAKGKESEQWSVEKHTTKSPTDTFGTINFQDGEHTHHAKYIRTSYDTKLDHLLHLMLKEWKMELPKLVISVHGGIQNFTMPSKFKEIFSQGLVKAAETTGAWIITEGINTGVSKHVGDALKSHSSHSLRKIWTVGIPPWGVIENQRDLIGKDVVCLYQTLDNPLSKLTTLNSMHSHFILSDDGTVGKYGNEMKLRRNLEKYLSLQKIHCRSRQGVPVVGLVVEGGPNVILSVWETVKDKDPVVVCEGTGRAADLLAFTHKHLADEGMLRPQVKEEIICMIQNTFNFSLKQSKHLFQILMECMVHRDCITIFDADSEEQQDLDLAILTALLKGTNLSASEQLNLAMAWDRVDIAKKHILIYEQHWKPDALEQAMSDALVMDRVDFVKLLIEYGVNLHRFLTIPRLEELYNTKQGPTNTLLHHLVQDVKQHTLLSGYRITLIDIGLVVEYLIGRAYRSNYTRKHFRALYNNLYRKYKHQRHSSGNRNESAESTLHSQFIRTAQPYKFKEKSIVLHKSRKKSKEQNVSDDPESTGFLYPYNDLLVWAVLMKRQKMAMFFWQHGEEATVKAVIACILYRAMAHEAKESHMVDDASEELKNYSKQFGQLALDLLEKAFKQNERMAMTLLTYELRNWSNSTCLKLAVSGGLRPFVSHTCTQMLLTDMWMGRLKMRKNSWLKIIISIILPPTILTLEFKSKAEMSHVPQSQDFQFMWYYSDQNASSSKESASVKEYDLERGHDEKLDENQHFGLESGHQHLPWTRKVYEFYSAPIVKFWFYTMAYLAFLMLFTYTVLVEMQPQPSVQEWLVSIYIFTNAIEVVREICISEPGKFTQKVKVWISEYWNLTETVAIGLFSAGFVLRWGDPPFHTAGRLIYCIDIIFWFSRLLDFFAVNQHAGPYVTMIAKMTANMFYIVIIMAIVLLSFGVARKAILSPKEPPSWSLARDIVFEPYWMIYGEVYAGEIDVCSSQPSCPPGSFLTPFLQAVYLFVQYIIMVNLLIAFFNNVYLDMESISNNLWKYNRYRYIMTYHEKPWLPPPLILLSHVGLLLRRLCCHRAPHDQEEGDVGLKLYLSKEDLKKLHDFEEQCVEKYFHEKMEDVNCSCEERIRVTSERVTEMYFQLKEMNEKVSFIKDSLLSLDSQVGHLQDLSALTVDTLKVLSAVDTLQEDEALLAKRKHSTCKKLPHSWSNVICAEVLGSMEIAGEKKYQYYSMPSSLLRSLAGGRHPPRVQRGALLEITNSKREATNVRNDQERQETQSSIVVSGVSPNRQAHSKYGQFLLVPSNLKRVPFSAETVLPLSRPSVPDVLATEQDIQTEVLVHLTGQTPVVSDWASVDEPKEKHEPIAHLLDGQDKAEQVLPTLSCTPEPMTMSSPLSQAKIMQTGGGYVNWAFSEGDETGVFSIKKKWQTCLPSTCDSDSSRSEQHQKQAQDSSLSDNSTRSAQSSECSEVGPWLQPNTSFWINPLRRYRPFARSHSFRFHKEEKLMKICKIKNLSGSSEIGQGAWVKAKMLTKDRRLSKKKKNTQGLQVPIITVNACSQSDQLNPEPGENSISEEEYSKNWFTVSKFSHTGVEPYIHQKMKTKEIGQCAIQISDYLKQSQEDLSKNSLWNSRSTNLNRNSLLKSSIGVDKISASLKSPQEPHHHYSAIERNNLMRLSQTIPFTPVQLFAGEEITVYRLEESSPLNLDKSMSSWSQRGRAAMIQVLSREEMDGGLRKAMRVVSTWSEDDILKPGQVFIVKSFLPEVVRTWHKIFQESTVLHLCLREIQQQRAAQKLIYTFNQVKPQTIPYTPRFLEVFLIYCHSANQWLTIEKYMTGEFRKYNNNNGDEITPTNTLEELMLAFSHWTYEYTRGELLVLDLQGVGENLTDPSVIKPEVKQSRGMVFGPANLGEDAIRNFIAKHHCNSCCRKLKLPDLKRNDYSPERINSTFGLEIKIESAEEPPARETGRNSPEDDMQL
Sequence of Misshapen-like kinase 1 (Homo sapiens) (Q8N4C8 whole entry, looked up): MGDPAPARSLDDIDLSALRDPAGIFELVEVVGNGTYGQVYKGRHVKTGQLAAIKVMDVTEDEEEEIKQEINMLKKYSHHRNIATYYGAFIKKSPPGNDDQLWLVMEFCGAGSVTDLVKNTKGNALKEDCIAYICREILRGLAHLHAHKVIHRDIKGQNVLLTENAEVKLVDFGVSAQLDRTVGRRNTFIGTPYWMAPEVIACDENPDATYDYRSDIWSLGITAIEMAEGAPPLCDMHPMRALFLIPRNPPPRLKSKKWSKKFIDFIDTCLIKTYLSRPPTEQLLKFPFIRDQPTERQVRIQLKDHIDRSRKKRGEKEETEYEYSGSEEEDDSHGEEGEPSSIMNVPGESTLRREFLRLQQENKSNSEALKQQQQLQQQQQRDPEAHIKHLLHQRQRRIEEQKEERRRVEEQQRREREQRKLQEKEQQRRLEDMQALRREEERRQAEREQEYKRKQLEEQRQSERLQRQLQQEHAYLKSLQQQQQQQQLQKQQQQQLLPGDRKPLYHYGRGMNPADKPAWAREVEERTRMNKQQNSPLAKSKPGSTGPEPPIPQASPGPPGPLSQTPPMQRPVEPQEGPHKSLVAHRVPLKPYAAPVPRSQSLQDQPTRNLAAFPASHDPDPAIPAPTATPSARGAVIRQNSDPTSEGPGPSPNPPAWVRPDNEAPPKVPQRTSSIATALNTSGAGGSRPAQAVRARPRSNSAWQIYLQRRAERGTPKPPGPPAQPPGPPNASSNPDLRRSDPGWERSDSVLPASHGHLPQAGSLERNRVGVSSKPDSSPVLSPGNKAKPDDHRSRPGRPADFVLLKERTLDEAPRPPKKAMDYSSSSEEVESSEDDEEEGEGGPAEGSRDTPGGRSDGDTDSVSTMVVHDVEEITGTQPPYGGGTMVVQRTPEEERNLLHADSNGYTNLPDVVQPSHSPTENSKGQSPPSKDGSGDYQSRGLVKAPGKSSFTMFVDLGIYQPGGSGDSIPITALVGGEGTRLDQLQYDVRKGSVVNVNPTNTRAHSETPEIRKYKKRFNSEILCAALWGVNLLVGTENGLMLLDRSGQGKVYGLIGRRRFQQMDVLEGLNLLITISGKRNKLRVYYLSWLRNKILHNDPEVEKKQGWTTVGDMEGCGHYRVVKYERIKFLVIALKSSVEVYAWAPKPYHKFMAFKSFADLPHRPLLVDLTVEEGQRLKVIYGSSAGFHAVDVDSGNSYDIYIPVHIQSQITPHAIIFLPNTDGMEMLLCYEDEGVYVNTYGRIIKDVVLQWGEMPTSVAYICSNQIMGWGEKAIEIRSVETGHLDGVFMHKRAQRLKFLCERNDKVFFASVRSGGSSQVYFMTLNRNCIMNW

O=C(N1CCS(=O)(=O)CC1)N1C[C@H](c2ccc(OC(F)(F)F)cc2)C[C@H](c2nc(C3CC3)no2)C1 [BAY-386] showed a % Inhibition of Control Agonist Response (Mean n=2) [1] of -0.2%, a % of Control Agonist Response (Mean n=2) [1] of 3.4% and a % Inhibition of Control Agonist Response (Mean n=2) [2] of 6.6%. For the same compound, the % of Control Agonist Response (Mean n=2) [2] was 4%, the residual activity [3] was 100% and the residual activity [4] was 100%. It also gave a residual activity [5] of 100%, a residual activity [6] of 100% and a residual activity [7] of 100%. The residual activity [8] was 100%, the residual activity [9] was 0% and the residual activity [10] was 100%. It also gave a residual activity [11] of 100%, a residual activity [12] of 100% and a residual activity [13] of 100%. For the same compound, the residual activity [14] was 94%, the residual activity [15] was 100% and the residual activity [16] was 100%. For the same compound, the residual activity [17] was 100%, the residual activity [18] was 100% and the residual activity [19] was 95%. It also gave a residual activity [20] of 99%, a residual activity [21] of 98% and a residual activity [22] of 94%. It also gave a residual activity [23] of 94%, a residual activity [24] of 88% and a residual activity [25] of 100%. For the same compound, the residual activity [26] was 100%, the residual activity [27] was 98% and the residual activity [28] was 100%. For the same compound, the residual activity [29] was 100%, the residual activity [30] was 100% and the residual activity [31] was 100%. The residual activity [32] was 100%, the residual activity [33] was 99% and the residual activity [34] was 93%. It also gave a residual activity [35] of 100%, a residual activity [36] of 94% and a residual activity [37] of 100%. It also gave a residual activity [38] of 100%, an inhibition [39] of 10.5% and an inhibition [40] of 3.2%. The inhibition [41] was -0.71%, the inhibition [42] was -6.71% and the inhibition [43] was -7.39%.

Cc1noc([C@H]2C[C@@H](c3ccc(C(F)(F)F)cc3)CN(C(=O)N3CCS(=O)(=O)C3)C2)n1 [BAY-448] showed a % Inhibition of Control Agonist Response (Mean n=2) [1] of 6.8%, a % of Control Agonist Response (Mean n=2) [1] of 0.3% and a % Inhibition of Control Agonist Response (Mean n=2) [2] of 8.6%. The % of Control Agonist Response (Mean n=2) [2] was 3.1%, the residual activity [3] was 100% and the residual activity [4] was 100%. For the same compound, the residual activity [5] was 100%, the residual activity [6] was 100% and the residual activity [7] was 100%. For the same compound, the residual activity [8] was 83%, the residual activity [9] was 92% and the residual activity [10] was 100%. For the same compound, the residual activity [11] was 100%, the residual activity [12] was 73% and the residual activity [13] was 100%. For the same compound, the residual activity [14] was 85%, the residual activity [15] was 79% and the residual activity [16] was 100%. It also gave a residual activity [17] of 99%, a residual activity [18] of 100% and a residual activity [19] of 100%. For the same compound, the residual activity [20] was 100%, the residual activity [21] was 100% and the residual activity [22] was 95%. For the same compound, the residual activity [23] was 100%, the residual activity [24] was 71% and the residual activity [25] was 95%. It also gave a residual activity [26] of 100%, a residual activity [27] of 88% and a residual activity [28] of 100%. It also gave a residual activity [29] of 100%, a residual activity [30] of 100% and a residual activity [31] of 94%. It also gave a residual activity [32] of 100%, a residual activity [33] of 100% and a residual activity [34] of 100%. The residual activity [35] was 99%, the residual activity [36] was 68% and the residual activity [37] was 100%. It also gave a residual activity [38] of 85%, an inhibition [39] of -2.96% and an inhibition [40] of 10.6%. For the same compound, the inhibition [41] was -0.15%, the inhibition [42] was 5.78% and the inhibition [43] was 3.61%.
